Results published in the supplement of paper PMC13380429.

Assays:
Calu-3 [1] = experiment: cell viability relative to DMSO; higher = less toxic; details: 72 h
U2OS [2] = experiment: as above; details: 72 h
HepG2 [3] = experiment: as above; details: 72 h
Caco-2 [4] = experiment: as above; details: 72 h
Vero E6 [5] = experiment: as above; details: 72 h
A549-ACE2 = experiment: drug-induced phospholipidosis relative to tamoxifen; higher = more phospholipidosis
[6] = system: A549-ACE2 infected with SARS-CoV-2; experiment: cell count relative to DMSO; higher = less toxic; details: 24 h
[7] = system: A549-ACE2 infected with SARS-CoV-2; experiment: morphology score (similarity to uninfected cells); higher = more like uninfected cells; details: 24 h
Calu-3 [8] = experiment: drug sensitivity score (DSS) for viability; higher = more toxic; extreme values may be limits of the assay; details: 72 h
U2OS [9] = experiment: as above; details: 72 h
HepG2 [10] = experiment: as above; details: 72 h
Caco-2 [11] = experiment: as above; details: 72 h
Vero E6 [12] = experiment: as above; details: 72 h
Calu-3 [13] = experiment: relative viability EC50 (midpoint between 100% and the lowest measured viability); higher = less toxic; details: 72 h
Caco-2 [14] = experiment: as above; details: 72 h
Vero E6 [15] = experiment: as above; details: 72 h
[16] = system: A549-ACE2 infected with SARS-CoV-2; experiment: SARS-CoV-2 infection rate relative to DMSO; higher = more infection; details: 24 h
U2OS [17] = experiment: relative viability EC50 (midpoint between 100% and the lowest measured viability); higher = less toxic; details: 72 h

Nc1nc(N)c(N=O)c(OCC2CCCCC2)n1 [NU-6027]
Details | SARS-CoV-2 infection rate, [16] [%] | cell count, [6] [%] | cell viability, Caco-2 [4] [%] | cell viability, Calu-3 [1] [%] | cell viability, HepG2 [3] [%] | cell viability, U2OS [2] [%] | cell viability, Vero E6 [5] [%] | morphology score, [7]
1 nM | – | – | 100 | 101 | 87.7 | 104 | 96 | –
10 nM | – | – | 97.5 | 117 | 92.7 | 101 | 105 | –
100 nM | – | – | 96.6 | 106 | 96.4 | 104 | 99.8 | –
0.3 µM | 104 | 100 | – | – | – | – | – | -0.13
1000 nM | – | – | 100 | 105 | 89.9 | 101 | 95 | –
3 µM | 68 | 103 | – | – | – | – | – | 0.59
10000 nM | – | – | 46 | 81.4 | 58.4 | 70.7 | 89.7 | –
10 µM | 52 | 107 | – | – | – | – | – | 0.62
30 µM | 41 | 100 | – | – | – | – | – | 0.46

drug-induced phospholipidosis [%], A549-ACE2
Details | 0.3 µM | 0.833333 µM | 3.33333 µM | 6.66667 µM | 10 µM | 30 µM
24 h | 1.28 | -0.02 | 2.45 | 3.35 | 2.35 | 28.5
48 h | 2.37 | -0.39 | -0.5 | -1.38 | 1.26 | –
72 h | 1.92 | -1.07 | -2.27 | -1.09 | -1.29 | –

Details | drug sensitivity score | relative viability EC50 [µM]
Caco-2 [11] | 2.9 | –
Caco-2 [14] | – | 3.17
Calu-3 [8] | 0.3 | –
Calu-3 [13] | – | > 10
HepG2 [10] | 3.7 | –
U2OS [9] | 1.2 | –
Vero E6 [12] | 0 | –
Vero E6 [15] | – | > 10

CCN(CC)Cc1cc(Nc2ccnc3cc(Cl)ccc23)ccc1O [amodiaquine]
Details | SARS-CoV-2 infection rate, [16] [%] | cell count, [6] [%] | cell viability, Caco-2 [4] [%] | cell viability, Calu-3 [1] [%] | cell viability, HepG2 [3] [%] | cell viability, U2OS [2] [%] | cell viability, Vero E6 [5] [%] | morphology score, [7]
1 nM | – | – | 99.3 | 114 | 103 | 98.5 | 101 | –
10 nM | – | – | 92.1 | 110 | 79 | 101 | 99.3 | –
100 nM | – | – | 90.2 | 106 | 85.7 | 103 | 101 | –
0.3 µM | 87 | 109 | – | – | – | – | – | 0.38
1000 nM | – | – | 96.7 | 91.5 | 85.7 | 98.1 | 95.3 | –
3 µM | 24 | 121 | – | – | – | – | – | 0.87
10000 nM | – | – | 58.5 | 81.8 | 57.7 | 93.9 | 84.9 | –
10 µM | 12 | 133 | – | – | – | – | – | 0.76
30 µM | 14 | 121 | – | – | – | – | – | 0.1

Details | drug sensitivity score | relative viability EC50 [µM]
Caco-2 [11] | 2.6 | –
Calu-3 [8] | 1.3 | –
Calu-3 [13] | – | > 10
HepG2 [10] | 5.5 | –
U2OS [9] | 0 | –
U2OS [17] | – | > 10
Vero E6 [12] | 0.6 | –
Vero E6 [15] | – | > 10
